Laboratory results from US8846653B2, “Delta-tocotrienol treatment and prevention of pancreatic cancer” (University of South Florida, priority 2006, dated 2014).

How the values were obtained:
[1] = system: human pancreatic ductal epithelial cells transformed with oncogenic K-ras (HPDE-K-ras); assay: Proliferation (MTT) of K-ras transformed ductal epithelial cells; type: cell-based; details: 72 hours
Experimental: FIGS. 36A and B are graphs showing the effect of tocotrienols on Human Pancreatic Ductal Epithelial Kras Transformed cells (MTT). (A) Tocotrienols (10-100 μM) had no effect on the proliferation of normal immortalized human pancreatic ductal epithelial cells at 72 hours. […] Points, means; bars, SE (n=3). *p<0.001 vs. vehicle. # p<0.02 vs. vehicle
The Ras effector pathways Raf-MEK-ERK and PI3 kinase-AKT are important for cell proliferation and survival, respectively. Pancreatic cancer cell lines (MIA PaCa2, SW1990, BXPC3) and HPDE 6C7 cells were treated with 8-tocotrienol (20 μM) and cell lysates were collected and prepared at progressive time intervals as described above. Proteins from lysates were run by SDS PAGE and immunoblotted with the following antibodies: Ras, p-cRaf (ser 338), p-MEK1/2, MEK1/2, pERK 44/42, ERK 44/42 (Cell Signaling) and c-Raf (BD Transduction Laboratories). […] The MIA PaCa2 and SW1990 cells were then tested for AKT inhibition. The cells were treated with δ-tocotrienol (20 μM) for 24 and 48 hours and cell lysates were run by SDS-PAGE and immunoblotted for p-AKT and AKT (Cell Signaling). […] Taken together, the inhibition of downstream effectors of oncogenic Ras signaling by δ-tocotrienol without an effect on Ras protein levels may indicate a negative regulatory role of 8-tocotrienol on the function of oncogenic Ras. The pancreatic ductal epithelial cell proliferative inhibition by δ-tocotrienol was tested to see if it occurs through blocking aberrant signal transduction cascades. Immortalized human pancreatic ductal epithelial cells (HPDE) and human pancreatic ductal epithelial cells that were transformed by stable transfection of a mutated K-ras oncogene (HPDE-K-ras) were used to test the. effect of tocotrienols on the proliferation of HPDE and HPDE-K-ras.

[2] = system: MiaPaCa-2 cells; assay: MTS assay of MiaPaCa2 cultures, single 50 μM dose; type: cell-based, human; details: MiaPaCa2, 50 μM
Experimental: MiaPaCa-2 cells were cultured in complete DMEM media containing 10% fetal bovine serum (FBS) and 1% penicillin-streptomycin, and 1% L-glutamine. BxPc-3 pancreatic cancer cells were cultured in complete RPMI media containing 10% fetal bovine serum (FBS), and 1% penicillin-streptomycin, 1% HEPES buffer, 1% sodium pyruvate and 1% L-glutamine HPDE6-C7 cells were cultured in serum-free keratinocyte SFM media. All cells were maintained at 37° C. in a humidified incubator with 5% CO2. The cells were treated with a single 50 μM dose of vehicle (vehicle only, may be a solvent), T3 alpha (alpha tocotrienol), T3 beta (beta tocotrienol), T3 gamma (gamma tocotrienol), T3 delta (delta tocotrienol), T alpha (alpha tocopherol), T beta (beta tocopherol), TS (tocopherol succinate), GG (geranylgeraniol), SA (succinic acid). A control (no treatment) culture was grown alongside the treatments for comparison. […]

| SMILES | rel amt (relative value set to the control) ([2]; 24 hours) | MTS assay result, run 1 ([2]; 24 hours) | MTS assay result, run 2 ([2]; 24 hours) | MTS assay result, run 3 ([2]; 24 hours) | MTS assay result, run 4 ([2]; 24 hours) | MTS assay result, run 5 ([2]; 24 hours) | MTS assay result, run 6 ([2]; 24 hours) | MTS assay result, run 7 ([2]; 24 hours) | MTS assay result, run 8 ([2]; 24 hours) | MTS assay result, run 9 ([2]; 24 hours) | rel amt (relative value set to the control) ([2]; 48 hours) | MTS assay result, run 1 ([2]; 48 hours) | MTS assay result, run 2 ([2]; 48 hours) | MTS assay result, run 3 ([2]; 48 hours) | MTS assay result, run 4 ([2]; 48 hours) | MTS assay result, run 5 ([2]; 48 hours) | MTS assay result, run 6 ([2]; 48 hours) | MTS assay result, run 7 ([2]; 48 hours) | MTS assay result, run 8 ([2]; 48 hours) | MTS assay result, run 9 ([2]; 48 hours) | other results |
| --- | --- | --- | --- | --- | --- | --- | --- | --- | --- | --- | --- | --- | --- | --- | --- | --- | --- | --- | --- | --- | --- |
| CC(C)=CCC/C(C)=C/CC/C(C)=C/CC[C@]1(C)CCc2cc(O)c(C)c(C)c2O1 [T3 gamma, gamma tocotrienol] | 66 | 0.133 | 0.135 | 0.141 | 0.127 | 0.142 | 0.166 | 0.171 | 0.162 | 0.147 | 37 | 0.095 | 0.116 | 0.111 | 0.128 | 0.159 | 0.147 | 0.167 | 0.152 | 0.134 | proliferation (MTT) [1]: significantly inhibited; rel amt (relative value set to the control) ([2]; 72 hours): 177; MTS assay result, run 1 ([2]; 72 hours): 0.776; MTS assay result, run 2 ([2]; 72 hours): 0.744; MTS assay result, run 3 ([2]; 72 hours): 0.876; MTS assay result, run 4 ([2]; 72 hours): 0.734; MTS assay result, run 5 ([2]; 72 hours): 0.812; MTS assay result, run 6 ([2]; 72 hours): 0.817; MTS assay result, run 7 ([2]; 72 hours): 0.773; MTS assay result, run 8 ([2]; 72 hours): 0.759; MTS assay result, run 9 ([2]; 72 hours): 0.786 |
| CC(C)=CCC/C(C)=C/CC/C(C)=C/CC[C@]1(C)CCc2c(C)c(O)cc(C)c2O1 [T3 beta, beta tocotrienol] | 79 | 0.17 | 0.179 | 0.184 | 0.152 | 0.172 | 0.182 | 0.179 | 0.19 | 0.176 | 61 | 0.193 | 0.137 | 0.227 | 0.223 | 0.231 | 0.272 | 0.225 | 0.27 | 0.222 | proliferation (MTT) [1]: significantly inhibited; rel amt (relative value set to the control) ([2]; 72 hours): 69; MTS assay result, run 1 ([2]; 72 hours): 0.349; MTS assay result, run 2 ([2]; 72 hours): 0.316; MTS assay result, run 3 ([2]; 72 hours): 0.328; MTS assay result, run 4 ([2]; 72 hours): 0.298; MTS assay result, run 5 ([2]; 72 hours): 0.323; MTS assay result, run 6 ([2]; 72 hours): 0.287; MTS assay result, run 7 ([2]; 72 hours): 0.281; MTS assay result, run 8 ([2]; 72 hours): 0.275; MTS assay result, run 9 ([2]; 72 hours): 0.307 |
| O=C(O)CCC(=O)O [SA, succinic acid] | 105 | 0.24 | 0.248 | 0.25 | 0.245 | 0.236 | 0.219 | 0.214 | 0.204 | 0.232 | 90 | 0.334 | 0.335 | 0.333 | 0.304 | 0.32 | 0.294 | 0.352 | 0.348 | 0.328 | rel amt (relative value set to the control) ([2]; 72 hours): 114; MTS assay result, run 1 ([2]; 72 hours): 0.596; MTS assay result, run 2 ([2]; 72 hours): 0.547; MTS assay result, run 3 ([2]; 72 hours): 0.566; MTS assay result, run 4 ([2]; 72 hours): 0.515; MTS assay result, run 5 ([2]; 72 hours): 0.544; MTS assay result, run 6 ([2]; 72 hours): 0.44; MTS assay result, run 7 ([2]; 72 hours): 0.397; MTS assay result, run 8 ([2]; 72 hours): 0.427; MTS assay result, run 9 ([2]; 72 hours): 0.504 |
| CC(C)=CCC/C(C)=C/CC/C(C)=C/CC/C(C)=C/CO [GG, geranylgeraniol] | 82 | 0.186 | 0.166 | 0.175 | 0.18 | 0.196 | 0.199 | 0.184 | 0.178 | 0.183 | 53 | 0.154 | 0.194 | 0.181 | 0.198 | 0.236 | 0.198 | 0.193 | 0.192 | 0.193 | rel amt (relative value set to the control) ([2]; 72 hours): 158; MTS assay result, run 1 ([2]; 72 hours): 0.784; MTS assay result, run 2 ([2]; 72 hours): 0.713; MTS assay result, run 3 ([2]; 72 hours): 0.757; MTS assay result, run 4 ([2]; 72 hours): 0.734; MTS assay result, run 5 ([2]; 72 hours): 0.682; MTS assay result, run 6 ([2]; 72 hours): 0.665; MTS assay result, run 7 ([2]; 72 hours): 0.65; MTS assay result, run 8 ([2]; 72 hours): 0.627; MTS assay result, run 9 ([2]; 72 hours): 0.702 |
